# Measured values reported in ChEMBL document CHEMBL1155519, “Discovery of N-phenyl-4-(thiazol-5-yl)pyrimidin-2-amine aurora kinase inhibitors” (J Med Chem, 2010).
# Calls of active or inactive are those of the source. The rule behind the calls is not given here.
# Key:
# Aurora kinase A = biological target: T1, Aurora kinase A (Homo sapiens, UniProt O14965); test: Inhibition of human recombinant Aurora A after 30 mins
# T1 sequence (O14965 whole entry): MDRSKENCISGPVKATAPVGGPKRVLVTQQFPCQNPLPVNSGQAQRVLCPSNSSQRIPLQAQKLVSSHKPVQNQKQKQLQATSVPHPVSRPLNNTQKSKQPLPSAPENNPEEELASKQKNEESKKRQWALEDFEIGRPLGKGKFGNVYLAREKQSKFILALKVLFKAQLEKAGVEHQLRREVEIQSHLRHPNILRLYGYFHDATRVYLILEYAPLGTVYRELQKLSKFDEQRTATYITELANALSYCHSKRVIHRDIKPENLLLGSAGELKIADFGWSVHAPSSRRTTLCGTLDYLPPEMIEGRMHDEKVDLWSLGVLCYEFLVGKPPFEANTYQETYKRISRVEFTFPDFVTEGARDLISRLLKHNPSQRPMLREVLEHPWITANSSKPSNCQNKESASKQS
# [1] = biological target: Cyclin-dependent kinase 1 (Homo sapiens, UniProt P06493); test: Inhibition of CDK1
# Sequence of Cyclin-dependent kinase 1 (P06493 whole entry): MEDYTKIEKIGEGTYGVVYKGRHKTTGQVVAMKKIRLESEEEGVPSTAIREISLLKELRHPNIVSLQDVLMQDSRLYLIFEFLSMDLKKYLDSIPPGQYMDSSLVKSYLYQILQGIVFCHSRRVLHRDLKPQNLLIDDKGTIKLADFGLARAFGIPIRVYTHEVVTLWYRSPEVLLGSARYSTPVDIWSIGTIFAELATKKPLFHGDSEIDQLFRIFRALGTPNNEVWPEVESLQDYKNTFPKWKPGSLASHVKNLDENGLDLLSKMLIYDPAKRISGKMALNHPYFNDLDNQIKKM
# [2] = biological target: Cyclin-dependent kinase 9 (Homo sapiens, UniProt P50750); test: Inhibition of CDK9
# Sequence of Cyclin-dependent kinase 9 (P50750 whole entry): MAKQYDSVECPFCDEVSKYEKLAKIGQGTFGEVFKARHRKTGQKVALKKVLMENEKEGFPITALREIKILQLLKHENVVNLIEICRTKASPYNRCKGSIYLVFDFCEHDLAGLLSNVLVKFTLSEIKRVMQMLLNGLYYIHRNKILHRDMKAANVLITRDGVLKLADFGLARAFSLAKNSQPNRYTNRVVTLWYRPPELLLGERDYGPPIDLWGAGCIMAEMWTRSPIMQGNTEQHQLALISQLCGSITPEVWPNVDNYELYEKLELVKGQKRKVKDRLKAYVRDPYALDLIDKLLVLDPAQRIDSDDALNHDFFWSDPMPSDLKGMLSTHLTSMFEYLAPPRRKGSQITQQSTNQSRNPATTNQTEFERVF
# [3] = biological target: Cyclin-dependent kinase 4 (Homo sapiens, UniProt P11802); test: Inhibition of CDK4
# Sequence of Cyclin-dependent kinase 4 (P11802 whole entry): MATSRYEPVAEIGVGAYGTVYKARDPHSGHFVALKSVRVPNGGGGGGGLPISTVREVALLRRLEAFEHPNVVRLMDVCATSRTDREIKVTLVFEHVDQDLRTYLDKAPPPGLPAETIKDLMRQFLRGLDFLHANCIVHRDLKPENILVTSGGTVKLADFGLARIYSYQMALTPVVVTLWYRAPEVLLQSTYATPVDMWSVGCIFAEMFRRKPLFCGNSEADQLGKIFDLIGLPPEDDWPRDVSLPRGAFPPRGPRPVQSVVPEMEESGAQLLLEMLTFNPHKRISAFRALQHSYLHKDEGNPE
# [4] = Inhibition of Aurora kinase in human A549 cells assessed as concentration required for half-maximal inhibition of histone H3 serine-10 phosphorylation after 7 hrs immunofluorescence microscopy; format: cell-based; conditions: A549, 7 h
# MIA PaCa-2 = test: Cytotoxicity against human MIAPaCa2 cells after 96 hrs by MTT assay; format: functional, cell-based; conditions: MIA PaCa-2, 96 h
# Aurora kinase B = Aurora kinase B (Homo sapiens, UniProt Q96GD4); test: Inhibition of human recombinant Aurora B after 60 mins
# Sequence of Aurora kinase B (Q96GD4 whole entry): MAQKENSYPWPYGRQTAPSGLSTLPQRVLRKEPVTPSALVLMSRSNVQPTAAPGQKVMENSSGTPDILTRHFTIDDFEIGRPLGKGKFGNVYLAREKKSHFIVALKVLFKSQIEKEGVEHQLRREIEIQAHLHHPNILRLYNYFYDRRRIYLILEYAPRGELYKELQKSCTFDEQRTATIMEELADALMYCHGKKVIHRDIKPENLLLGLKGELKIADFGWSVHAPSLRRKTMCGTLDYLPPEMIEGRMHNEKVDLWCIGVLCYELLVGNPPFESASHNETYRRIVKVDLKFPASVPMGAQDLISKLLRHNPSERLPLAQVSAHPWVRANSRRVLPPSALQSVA
# [5] = biological target: Cyclin-dependent kinase 2 (Homo sapiens, UniProt P24941)
# [6] = biological target: Cyclin-dependent kinase 7 (Homo sapiens, UniProt P50613); test: Inhibition of CDK7
# Sequence of Cyclin-dependent kinase 7 (P50613 whole entry): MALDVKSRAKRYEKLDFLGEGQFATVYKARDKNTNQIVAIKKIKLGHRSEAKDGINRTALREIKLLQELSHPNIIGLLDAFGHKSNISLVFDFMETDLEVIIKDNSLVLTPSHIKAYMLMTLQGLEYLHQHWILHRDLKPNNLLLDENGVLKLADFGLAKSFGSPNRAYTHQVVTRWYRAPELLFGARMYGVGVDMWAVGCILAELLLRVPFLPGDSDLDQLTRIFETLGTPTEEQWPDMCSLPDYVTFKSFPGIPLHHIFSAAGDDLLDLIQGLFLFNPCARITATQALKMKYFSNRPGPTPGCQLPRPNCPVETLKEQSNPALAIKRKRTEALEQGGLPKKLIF
# A2780 = test: Cytotoxicity against human A2780 cells after 96 hrs by MTT assay; format: functional, cell-based; conditions: A2780, 96 h
# U2OS [7] = test: Inhibition of Aurora kinase in nocodazole-synchronized human U2OS cells assessed as reduction of histone H3 serine-10 phosphorylation at 0.07 to 10 uM after 2 hrs immunofluorescence microscopy; format: cell-based
# MCF7 = test: Induction of p53 protein expression in human MCF7 cells at 0.07 to 10 uM after 7 hrs by fluorescent microscopy; format: functional, cell-based
# U2OS [8] = test: Inhibition of Aurora kinase in asynchronous human U2OS cells assessed as reduction of histone H3 serine-10 phosphorylation at 150 nM after 7 hrs immunofluorescence microscopy; format: cell-based
Compound,Ki (Aurora kinase A) [nM],Ki [1] [nM],Ki [2] [nM],Ki [3] [nM],IC50 [4] [nM],IC50 (MIA PaCa-2) [nM],Ki (Aurora kinase B) [nM],Ki [5] [nM],Ki [6] [nM],IC50 (A2780) [nM],inhibition (U2OS [7]),Activity (MCF7),Activity (U2OS [8])
CC(=O)N1CCN(c2ccc(Nc3nccc(-c4sc(N)nc4C)n3)cc2)CC1,7.6,> 10000,264,1250,590,493,3.8,522,2150,240,,,
CNc1nc(C)c(-c2ccnc(Nc3cc(OC)c(OC)c(OC)c3)n2)s1,1,367,6,955,280,62,3,256,370,24,Active,inactive,inactive
Cc1nc(C)c(-c2ccnc(Nc3ccc(N)cc3)n2)s1,31,769,337,807,940,1230,,168,2560,584,Active,inactive,Active
CNc1ccc(Nc2nccc(-c3sc(C)nc3C)n2)cc1,18,909,348,840,1760,235,33,286,4240,147,,,
Cc1nc(C)c(-c2ccnc(Nc3ccc(N4CCOCC4)cc3)n2)s1,4,> 10000,> 10000,2170,860,871,9,1040,> 10000,332,Active,inactive,inactive
COc1cc(Nc2nccc(-c3sc(C)nc3C)n2)cc(OC)c1OC,0.4,706,11,666,130,22,2,239,243,10,Active,inactive,inactive
CNc1nc(C)c(-c2ccnc(Nc3ccc(N4CCN(C(C)=O)CC4)cc3)n2)s1,12,851,448,22,,622,9.7,297,1080,221,,,
